Measurements reported in patent publication US20230399289A1, “ITACONIC ACID DERIVATIVES” (Sitryx Therapeutics Limited, priority 2020, published 2023).

How the values were obtained:
[1] = tested on: IL-1β cytokine output from THP-1 cells; test: THP-1 AlphaLISA IL-1β cytokine assay; assay type: cell-based; conditions: Homo sapiens, THP-1, differentiated THP-1 cells, LPS 24 hr then Nigericin 1 hour
Protocol: (§1) Measuring Inhibitory Effects on IL-1β and IL-6 Cytokine Output from THP-1s
(§2) The cytokine inhibition profiles of compounds of formula (I) were determined in a differentiated THP-1 cell assay. All assays were performed in RPMI-1640 growth medium (Gibco), supplemented with 10% fetal bovine serum (FBS; Gibco), 1% penicillin-streptomycin and 1% sodium pyruvate unless specified otherwise. The IL-1β and IL-6 cytokine inhibition assays were each run in a background of differentiated THP-1 cells as described below. All reagents described were from Sigma-Aldrich unless specified otherwise. Compounds were prepared as 10 mM DMSO stocks.
(§3) THP-1 cells were expanded as a suspension up to 80% confluence in appropriate growth medium. Cells were harvested, suspended, and treated with an appropriate concentration of phorbol 12-myristate 13-acetate (PMA) over a 72 hr period (37° C./5% CO2).
(§4) Following 72 hrs of THP-1 cell incubation, cellular medium was removed and replaced with fresh growth media containing 1% of FBS. Working concentrations of compounds were prepared separately in 10% FBS treated growth medium and pre-incubated with the cells for 30 minutes (37° C./5% CO2). Following the 30 minute compound pre-incubation, THP-1s were treated with an appropriate concentration of LPS and the THP-1s were subsequently incubated for a 24 hr period (37° C./5% CO2). An appropriate final concentration of Nigericin was then dispensed into the THP-1 plates and incubated for 1 hour (37° C./5% CO2) before THP-1 supernatants were harvested and collected in separate polypropylene 96-well holding plates.
(§5) Reagents from each of the […] and IL-6 commercial kits (Perkin Elmer) were prepared and run according to the manufacturer's instructions. Subsequently, fluorescence signal detection in a microplate reader was measured (EnVision® Multilabel Reader, Perkin Elmer).
(§6) Percentage inhibition was calculated per cytokine by normalising the sample data to the high and low controls used within each plate (+/−LPS respectively). Percentage inhibition was then plotted against compound concentration and the 50% inhibitory concentration (IC50) was determined from the resultant concentration-response curve.

[2] = tested on: IL-6 cytokine output from THP-1 cells; test: THP-1 AlphaLISA IL-6 cytokine assay; assay type: cell-based; conditions: Homo sapiens, THP-1, differentiated THP-1 cells, LPS 24 hr then Nigericin 1 hour
Protocol: as §1, §2, §3, §4, §5, §6

[3] = tested on: NRF2 (nuclear factor erythroid 2-related factor 2); test: NRF2 +/−GSH activation assay (DiscoverX PathHunter NRF2 translocation kit, U2OS cells); assay type: cell-based; conditions: Homo sapiens; for Emax: U2OS, normalised to dimethyl fumarate high control; for EC50: U2OS PathHunter cells, 6 hours
[4] = Hepatocyte stability assay, human; assay type: in vitro ADME; conditions: cryopreserved hepatocytes, 10 μM compound, 0.5×10^6 cells/mL, 60 min, read-out: T½
Source text: (§7) Defrosted cryo-preserved hepatocytes (viability>70%) may be used to determine the metabolic stability of a compound via calculation of intrinsic clearance (Clint; a measure of the removal of a compound from the liver in the absence of blood flow and cell binding). Clearance data are particularly important for in vitro work as they can be used in combination with in vivo data to predict the half-life and oral bioavailability of a drug.
(§8) The metabolic stability in hepatocytes assay involves a time-dependent reaction using both positive and negative controls. The cells were pre-incubated at 37° C. and spiked with test compound (and positive control); samples were taken at pre-determined time intervals and analysed to monitor the change in concentration of the initial drug compound over 60 minutes. A buffer incubation reaction (with no hepatocytes present) acted as a negative control and two cocktail solutions, containing compounds with known high and low clearance values (verapamil/7-hydroxycoumarin and propranolol/diltiazem), acted as positive controls. • 1. The assay was run with a cell concentration of 0.5×10^6 cells/mL in Leibovitz buffer. • 2. All compounds and controls were run in duplicate. • 3. Compound concentration was 10 μM. • 4. All compounds and controls were incubated with both cells and buffer to show turnover was due to hepatic metabolism. • 5. All wells on the incubation plate had 326.7 μL of either cells or buffer added. • 6. Prior to assay, cell and buffer-only incubation plates were preincubated for 10 mins at 37° C. • 7. The assay was initiated by adding compounds, 3.3 μL of 1 mM in 10% DMSO-90% Buffer; final DMSO concentration is 0.1%. • 8. Samples were taken at regular timepoints (0, 5, 10, 20, 40, 60 min) until 60 mins. • 9. Sample volume was 40 μL and was added to 160 μL of crash solvent (acetonitrile with internal standard) and stored on ice. • 10. At the end of the assay, the crash plates were centrifuged at 3500 rpm for 20 mins at 4° C. • 11. 80 μL of clear supernatant was removed and mixed with 80 μL of deionised water before being analysed by LC-MS/MS.
(§9) Raw LC-MS/MS data was exported to, and analysed in, Microsoft Excel for determination of intrinsic clearance. The percentage remaining of a compound was monitored using the peak area of the initial concentration as 100%. Intrinsic clearance and half-life values were calculated using a graph of the natural log of percentage remaining versus the time of reaction in minutes. Half-life (min) and intrinsic clearance (Clint in μL min^−1 10^−6 cells) values were calculated using the gradient of the graph (the elimination rate constant, k) and Equations 1 and 2.

hepatocytes [5] = test: Hepatocyte stability assay, human; assay type: in vitro ADME; conditions: 10 μM compound, 0.5×10^6 cells/mL, 60 min
Source text: as §7, §8, §9

[6] = Hepatocyte stability assay, mouse; assay type: in vitro ADME; conditions: cryopreserved hepatocytes, 10 μM compound, 0.5×10^6 cells/mL, 60 min, read-out: T½
Source text: as §7, §8, §9

hepatocytes [7] = test: Hepatocyte stability assay, mouse; assay type: in vitro ADME; conditions: 10 μM compound, 0.5×10^6 cells/mL, 60 min
Source text: as §7, §8, §9

[8] = +GSH, 30 minute compound-GSH pre-incubation

SMILES | IC50 [1] [µM] | IC50 [2] [µM] | Emax ([3]; +GSH) [%] | Emax ([3]; −GSH) [%] | EC50 [3, 8] [µM] | EC50 ([3]; −GSH) [µM] | half-life at 10 μM [4] [h] | CIint (hepatocytes [5]) [μL min^−1 10^−6 cells] | half-life at 10 μM [6] [h] | CIint (hepatocytes [7]) [μL min^−1 10^−6 cells]
C=C(CC(=O)OC1(c2ccc(C(F)(F)F)cc2)CCC1)C(=O)OC1(CC(=O)O)COC1 [Example 33, 2-(3-((2-methylene-4-oxo-4-(1-(4-(trifluoromethyl)phenyl)cyclobutoxy)butanoyl)oxy)oxetan-3-yl)acetic acid] | 2.4 | 5.7 | 118 | 162 | 20.7 | 8.4 | 3.37 | 7 | 0.3 | 82
C=C(CC(=O)OC1(c2ccc(Cl)cc2Cl)CCC1)C(=O)OCC(=O)O [Example 10, 2-((4-(1-(2,4-dichlorophenyl)cyclobutoxy)-2-methylene-4-oxobutanoyl)oxy)acetic acid] | 11.3 | – | 175 | 236 | 11.6 | 8.3 | 1.78 | 14 | 0.133 | 187
C=C(CC(=O)OC1(c2ccc(OC(F)(F)F)cc2)CCC1)C(=O)OCC(=O)O [Example 9, 2-((2-methylene-4-oxo-4-(1-(4-(trifluoromethoxy)phenyl)cyclobutoxy)butanoyl)oxy)acetic acid] | 12.1 | – | 182 | 210 | 7.3 | 5.1 | 4.18 | 6 | 0.483 | 66
C=C(CC(=O)OC1(c2ccc(Br)cc2Cl)CCC1)C(=O)OCC(=O)O [Example 12, 2-((4-(1-(4-bromo-2-chlorophenyl)cyclobutoxy)-2-methylene-4-oxobutanoyl)oxy)acetic acid] | 8.8 | – | 158 | 217 | 7.9 | 5.2 | 1.07 | 23 | 0.1 | 239
C=C(CC(=O)OC1(c2c(Cl)cccc2Cl)CCC1)C(=O)OCC(=O)O [Example 8, 2-((4-(1-(2,6-dichlorophenyl)cyclobutoxy)-2-methylene-4-oxobutanoyl)oxy)acetic acid] | 15.2 | 6 | 170 | 193 | 18.7 | 12.2 | 2.37 | 11 | 0.15 | 223
C=C(CC(=O)OC1(c2cc(Cl)cc(Cl)c2)CCC1)C(=O)OCCC(=O)O [Example 13, 3-((4-(1-(3,5-dichlorophenyl)cyclobutoxy)-2-methylene-4-oxobutanoyl)oxy)propanoic acid] | 12.5 | 5.9 | 143 | 251 | 11.6 | 7.6 | 1.67 | 16 | < 0.05 | >460
C=C(CC(=O)OC1(c2cc(Cl)cc(Cl)c2)CCC1)C(=O)OCC(=O)O [Example 1, 2-((4-(1-(3,5-dichlorophenyl)cyclobutoxy)-2-methylene-4-oxobutanoyl)oxy)acetic acid] | 9.4 | 4.6 | 259 | 375 | 11.1 | 7.7 | 1.93 | 13 | 0.4 | 52
C=C(CC(=O)OC1(c2ccc(C(F)(F)F)cc2Cl)CCC1)C(=O)OCC(=O)O [Example 11, 2-((4-(1-(2-chloro-4-(trifluoromethyl)phenyl)cyclobutoxy)-2-methylene-4-oxobutanoyl)oxy)acetic acid] | 9 | – | 160 | 214 | 5.1 | 3 | 2.53 | 10 | 0.25 | 100
C=C(CC(=O)OC1(c2ccc(C(F)(F)F)cc2)CC1)C(=O)OCC(=O)O [Example 30, 2-((2-methylene-4-oxo-4-(1-(4-(trifluoromethyl)phenyl)cyclopropoxy)butanoyl)oxy)acetic acid] | 16.7 | > 100 | – | – | – | – | 1.43 | 16 | 0.65 | 33
C=C(CC(=O)OC1(c2ccc(C(F)(F)F)cc2)COC1)C(=O)OCCC(=O)O [Example 32, 3-((2-methylene-4-oxo-4-((3-(4-(trifluoromethyl)phenyl)oxetan-3-yl)oxy)butanoyl)oxy)propanoic acid] | 7.4 | 11.9 | – | – | – | – | 6.78 | 4 | 0.683 | 36
C=C(CC(=O)OC1(c2ccc(Br)cc2)CCC1)C(=O)OCC(=O)O [Example 3, 2-((4-(1-(4-bromophenyl)cyclobutoxy)-2-methylene-4-oxobutanoyl)oxy)acetic acid] | 12.1 | 11.3 | – | – | – | – | 2.9 | 9 | 0.333 | 95
C=C(CC(=O)OC1(c2cccc(Cl)c2Cl)CCC1)C(=O)OCC(=O)O [Example 7, 2-((4-(1-(2,3-dichlorophenyl)cyclobutoxy)-2-methylene-4-oxobutanoyl)oxy)acetic acid] | 17.4 | – | – | – | – | – | 2.52 | 10 | 0.3 | 107
C=C(CC(=O)OC1(c2ccc(OC(F)(F)F)cc2Cl)CCC1)C(=O)OCC(=O)O [Example 6, 2-((4-(1-(2-chloro-4-(trifluoromethoxy)phenyl)cyclobutoxy)-2-methylene-4-oxobutanoyl)oxy)acetic acid] | 12.7 | – | 187 | 219 | 15.4 | 11.9 | 1.42 | 18 | < 0.05 | >460
